Experimental data from patent US7704696B2, “Screening of compounds for OCTN2 transporter activity” (XenoPort, Inc., priority 2005, dated 2010).

Columns and labels:
hOCTN2 [1] = target: T1, hOCTN2 (Homo sapiens, UniProt O76082); experiment: Oocyte uptake assay, oocytes injected with OCTN2 cRNA; type: cell-based; set-up: expressed in transfected cells; host or cells: Xenopus oocytes injected with OCTN2 cRNA; settings: Xenopus oocytes
T1 sequence (O76082 1-557): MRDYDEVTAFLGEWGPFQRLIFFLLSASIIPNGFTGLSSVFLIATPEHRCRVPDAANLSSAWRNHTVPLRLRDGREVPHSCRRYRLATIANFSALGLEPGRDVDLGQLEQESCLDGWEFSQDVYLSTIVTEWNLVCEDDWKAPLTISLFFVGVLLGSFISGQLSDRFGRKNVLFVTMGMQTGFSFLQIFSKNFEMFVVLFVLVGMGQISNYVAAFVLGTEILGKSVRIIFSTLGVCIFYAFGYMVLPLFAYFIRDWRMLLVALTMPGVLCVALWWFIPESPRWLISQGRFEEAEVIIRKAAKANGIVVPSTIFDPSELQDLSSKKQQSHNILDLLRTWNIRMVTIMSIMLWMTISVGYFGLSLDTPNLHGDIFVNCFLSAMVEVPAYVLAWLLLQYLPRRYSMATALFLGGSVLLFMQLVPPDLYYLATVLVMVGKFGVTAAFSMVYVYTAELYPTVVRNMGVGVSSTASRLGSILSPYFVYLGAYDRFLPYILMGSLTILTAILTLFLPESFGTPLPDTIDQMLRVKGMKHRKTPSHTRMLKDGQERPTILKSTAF

hOCTN2 [2] = target: T1, hOCTN2; experiment: hOCTN2 competition uptake assay (3H-carnitine uptake into CHO-TREx-hOCTN2 cells); type: cell-based; set-up: expressed in transfected cells; host or cells: CHO-TREx cells (CHO-TREx-OCTN2 inducible cell line)
Description: A modified competition uptake assay was developed to determine the ability of a test compound(s) to inhibit the uptake of radiolabeled substrates into CHO-TREx-hOCTN2 cells induced to over-express hOCTN2. The results are stated as affinities (IC50).
The competition uptake assay was prepared as follows: Compounds were prepared for assay by diluting a 100 mM stock concentration (in DMSO) to the appropriate working concentration. Typically, seven-point dose response curves were prepared starting at a final assay concentration of 1 mM and carrying out three-fold dilutions. […]
Scintillation fluid (200 μl) (Optiphase Supermix (Perkin Elmer) was added to each well, and the plate was covered with a 96-well adhesive plate cover and placed on a shaker for 10 minutes. The plates were counted on a 96-well plate scintillation counter for 60 sec/well. The data were analyzed using a sigmoidal dose response curve-fitting program (Prism, GraphPad, Inc, San Diego, Calif.; equation: one-site competition).
FIG. 7 depicts the results of a competition experiment using CHO-TREx-OCTN2 cells. ^3H-carnitine was used as the substrate and unlabeled carnitine was used as the competitor. […] Non-specific uptake was determined by measuring the uptake into cells not induced to express the transporter (“no tet”). […]

hOCTN2 [3] = target: T1, hOCTN2; experiment: hOCTN2 direct uptake assay (LC-MS-MS, CHO-TREx-hOCTN2 cells); type: cell-based; set-up: expressed in transfected cells; host or cells: CHO-TREx cells (CHO-TREx-OCTN2 inducible cell line); settings: CHO-TREx-hOCTN2 cells induced to express hOCTN2, specific uptake
Description: (§1) A modified direct uptake assay was developed to determine the ability of test compounds to be transported into CHO-TREx cells induced to over-express hOCTN2. Four concentrations (bracketing the affinity as measured by competition assays) per compound were routinely tested. Non-specific uptake was determined by measuring the uptake into cells not induced to express the transporter (“no tet”).
(§2) The direct uptake assays were prepared as follows: Compounds were prepared for assay by diluting a 100 mM stock concentration (in DMSO or water, depending on compound solubility) to the appropriate working concentration. Typically, four concentrations bracketing the IC50 were tested. The highest test concentration for each compound was made in an Eppendorf tube and diluted into HBSS. The samples were robustly vortexed and centrifuged for 10 minutes at 13,200 rpm to spin down any precipitate. The supernatant from these samples (˜150 μl/well) was carefully removed and placed into six wells of row A (cmpd 1: A1-6; cmpd 2: A7-12) or row E (cmpd 3: E1-6; cmpd 4: E7-12) of a 96-well polypropylene “compound” plate. Three additional 2-fold dilutions were made in the subsequent rows (B-D or […]) in HBSS. […]

PgP = target: T2, PgP (Homo sapiens, UniProt P08183); experiment: Transwell monolayer efflux assay, MDCK cells with TREx-PgP; type: cell-based
T2 construct: expressed in transfected cells; host or cells: MDCK cells
T2 sequence (P08183 whole entry): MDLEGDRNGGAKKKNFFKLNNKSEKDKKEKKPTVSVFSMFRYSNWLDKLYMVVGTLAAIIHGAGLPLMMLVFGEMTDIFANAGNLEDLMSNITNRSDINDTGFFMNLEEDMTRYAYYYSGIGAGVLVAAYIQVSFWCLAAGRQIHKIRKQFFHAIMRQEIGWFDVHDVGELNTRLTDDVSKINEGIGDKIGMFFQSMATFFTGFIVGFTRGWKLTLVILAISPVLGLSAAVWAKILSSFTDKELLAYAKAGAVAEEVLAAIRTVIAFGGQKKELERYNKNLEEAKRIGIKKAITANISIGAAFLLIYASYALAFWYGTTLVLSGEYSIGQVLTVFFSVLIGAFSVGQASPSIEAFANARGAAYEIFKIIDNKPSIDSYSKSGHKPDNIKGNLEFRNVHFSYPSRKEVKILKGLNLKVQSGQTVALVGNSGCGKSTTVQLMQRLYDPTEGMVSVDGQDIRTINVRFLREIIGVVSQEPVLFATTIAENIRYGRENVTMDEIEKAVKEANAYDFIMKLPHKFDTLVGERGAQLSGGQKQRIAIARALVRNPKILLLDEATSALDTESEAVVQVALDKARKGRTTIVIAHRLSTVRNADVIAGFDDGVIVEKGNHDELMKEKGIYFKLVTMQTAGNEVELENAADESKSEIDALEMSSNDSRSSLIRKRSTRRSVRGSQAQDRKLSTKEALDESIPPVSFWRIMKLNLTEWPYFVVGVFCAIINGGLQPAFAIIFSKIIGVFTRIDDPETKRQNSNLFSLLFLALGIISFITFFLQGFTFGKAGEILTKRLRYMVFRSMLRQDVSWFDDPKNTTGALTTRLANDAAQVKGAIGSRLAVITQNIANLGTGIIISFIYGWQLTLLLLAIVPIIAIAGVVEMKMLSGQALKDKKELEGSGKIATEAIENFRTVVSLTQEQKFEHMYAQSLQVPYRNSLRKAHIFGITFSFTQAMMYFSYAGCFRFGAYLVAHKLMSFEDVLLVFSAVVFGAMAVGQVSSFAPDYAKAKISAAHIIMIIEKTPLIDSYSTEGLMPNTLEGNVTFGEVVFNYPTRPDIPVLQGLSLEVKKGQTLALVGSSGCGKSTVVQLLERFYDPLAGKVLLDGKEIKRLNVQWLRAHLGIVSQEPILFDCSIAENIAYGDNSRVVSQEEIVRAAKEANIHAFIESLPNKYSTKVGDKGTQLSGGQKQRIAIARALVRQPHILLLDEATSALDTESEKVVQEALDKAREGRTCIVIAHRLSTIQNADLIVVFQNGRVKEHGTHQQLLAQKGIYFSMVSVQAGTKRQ
Description: Transwell monolayer efflux assays can be performed by transfecting MDCK cells with the tetracycline-inducible TREx-PgP expression vector. The cells optionally can be transfected with a nucleic acid encoding the transporter of interest. The transfected cells are seeded on polycarbonate filter membranes in transwell dishes and grown for 3-5 days, yielding a polarized monolayer with tight junctions between cells.

[4] = substrate: C[N+](C)(C)CC(O)CC(=O)[O-]; experiment: hOCTN2 direct uptake assay (LC-MS-MS, CHO-TREx-hOCTN2 cells); type: cell-based, human; settings: other: CHO-TREx-hOCTN2 cells induced to express hOCTN2, specific uptake
Description: as §1, §2

[5] = 2.5 nM 3H-vinblastine, in the presence of 250 μM verapamil

Question: Which “3H-carnitine uptake in OCTN2-expressing oocytes versus noninjected controls” value (hOCTN2 [1]) does the source give for `C[N+](C)(C)CC(O)CC(=O)[O-]` (centres unmarked) [Carnitine, carnitine] here?
Answer: higher levels of ^3H-carnitine uptake than noninjected controls

Question: What about the “uptake of labeled carnitine with increasing unlabeled carnitine” value (hOCTN2 [2]; cells induced to express OCTN2, unlabeled carnitine as competitor) of the same molecule?
Answer: uptake of labeled carnitine decreased as the concentration of unlabeled carnitine increased

Question: What about the IC50 (hOCTN2 [2]; inhibition of 3H-carnitine uptake, CHO-TREx-hOCTN2 cells induced to express hOCTN2) of the same molecule?
Answer: 6.3 µM

Question: And the “Direct Uptake Vmax” value (hOCTN2 [3])?
Answer: 7.7 pmol/min/well

Question: With `CC[C@]1(O)C[C@@H]2CN(CCc3c([nH]c4ccccc34)[C@@](C(=O)OC)(c3cc4c(cc3OC)N(C)[C@H]3[C@@](O)(C(=O)OC)[C@H](OC(C)=O)[C@]5(CC)C=CCN6CC[C@]43[C@@H]65)C2)C1` [^3H-vinblastine, vinblastine] as the molecule, how does the “apical to basolateral transport” value (PgP; [5]) read?
Answer: strongly increased

Question: And the “basolateral to apical transport” value (PgP; [5])?
Answer: strongly decreased

Question: And the PgP substrate status (PgP; concluded from transport with and without verapamil)?
Answer: substrate of PgP

B1: hOCTN2 (Homo sapiens) (protein)
chain: T1 sequence (O76082 1-557)
notes: expressed in transfected cells; host or cells: CHO-TREx cells (CHO-TREx-OCTN2 inducible cell line)
Question: With B1 as the molecule, how does the Km [4] read?
Answer: 300 µM
